Legend:
[1] = system: abdominal cavity branch of vagus nerve; test: Afferent activity of the abdominal cavity branch of vagus nerve after intraduodenal administration; assay type: in vivo, rat; conditions: 150 mM administered in the duodenum; urethane-anesthetized Wistar rats starved for 18 hours
Description: After starved for 18 hours, rats (Wistar strain, male, 8 to 10 week age: Japan Charles River) were laparotomized under anesthesis with urethane (1 g/kg, i.p.) and about 5 mm of the abdominal cavity branch of vagus nerve was peeled off under stereoscopic microscope. After the cutting of vagus nerve fasciculus, the vagus nerve fasciculus was placed on a small operation stage (8×6 mm) and fat and connective tissue surrounding the vagus nerve fasciculus were carefully peeled off. The terminal fiber on the organ side was placed on a platinum-made bipolar electrode and insulated from the surrounding tissue with liquid paraffin/vaseline (1:1) mixed solution. […]
The neural activity potential was amplified 10,000 folds by a micro potential amplifier (DAM-80 manufactured by WPI) and subjected to A/D conversion (Powerlab 4sp, manufactured by ADI Instruments) after noise was decreased by a Bessel filter (4-pole, […]). […] Simultaneously, while monitoring the amplified signals by an oscilloscope, a noise component is separated from a neural signal component by a window discriminator (DSE-435, manufactured by DiaMedical Corporation), integrated for 5 seconds by a Spike Counter (DSE-335P, manufactured by Nihon Kohden Corporation) and recorded by a chart recorder (WT-465G, manufactured by Nihon Kohden Corporation). […]

mGluR4 variant = molecular target: T1, mGluR4 variant (Rattus norvegicus, UniProt P31423); test: Measurement of function of mGluR4 variant gene by cAMP measurement in variant expressing CHO-K1 cells; assay type: cell-based; conditions: 1 mM; for amount of cAMP: in presence of IBMX 100 μM and forskolin 10 μM, n=3
T1 construct: A full-length cDNA of a novel mGluR4 variant was amplified again by a RT-PCR method; V5-His (only in the cloning vector's name); expressed in transfected cells
Description: The prepared vector (pcDNA3.1E) was introduced in CHO-K1 cell (Dainippon Pharmaceutical Co., Ltd.) by using polyFect reagent (Qiagen). After 48 hours, neomycin (600 μg/ml) was added to a culture medium (Modified Eagle Medium (αMEM) containing 10% fetal bovine serum, 100 U/ml penicillin; Nacalai Tesque) and cultivation was continued for 2 to 3 weeks to perform screening of gene-introduced cells.
The variant expressing cells obtained as described above were dispensed to 2.5×10^5 cells/well on a plate (24-well) and cultivated for 20 hours and then used for the measurement of the function of cAMP. Each plate was washed well with Dulbeco's phosphate buffer and incubated for 20 minutes. Thereafter, stimulation was performed with each drug for 10 minutes at 37° C. After the stimulation, the cells were at once treated with ice-cooled 2.5% perchloric acid (PCA) for 30 minutes, neutralized with KOH, and centrifuged to obtain a supernatant (12,000 rpm×10 min, 4° C.). The cAMP content of the supernatant was determined according to a conventional enzyme immunoassay (ELISA) by using a cAMP assay kit (Amersham).

T1 sequence (P31423 with tags, fused parts or gaps): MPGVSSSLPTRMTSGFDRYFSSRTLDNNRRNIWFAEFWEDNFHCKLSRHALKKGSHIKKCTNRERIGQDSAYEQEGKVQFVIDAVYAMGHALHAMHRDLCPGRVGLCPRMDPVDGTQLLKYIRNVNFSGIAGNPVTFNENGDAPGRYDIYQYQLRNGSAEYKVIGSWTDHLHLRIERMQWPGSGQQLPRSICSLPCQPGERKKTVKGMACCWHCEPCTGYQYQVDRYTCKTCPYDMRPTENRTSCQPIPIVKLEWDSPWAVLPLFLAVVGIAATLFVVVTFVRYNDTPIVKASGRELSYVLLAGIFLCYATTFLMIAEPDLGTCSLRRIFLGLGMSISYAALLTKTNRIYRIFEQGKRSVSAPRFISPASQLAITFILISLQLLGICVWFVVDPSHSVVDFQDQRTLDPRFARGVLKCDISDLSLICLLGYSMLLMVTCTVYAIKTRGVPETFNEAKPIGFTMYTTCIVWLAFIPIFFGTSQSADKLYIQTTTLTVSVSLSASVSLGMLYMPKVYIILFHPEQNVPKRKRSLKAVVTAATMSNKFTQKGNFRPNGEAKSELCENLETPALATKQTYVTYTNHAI

N[C@@H](CCC(=O)[O-])C(=O)[O-].[Na+].[Na+] [MSG, sodium L-glutamate]
afferent activity of the abdominal cavity branch of vagus nerve [1]: increased

[Cl-].[Na+] [sodium chloride]
amount of cAMP (mGluR4 variant): 1,519 fmole

N[C@@H](CCC(=O)O)C(=O)O [glutamic acid]
amount of cAMP (mGluR4 variant): 1,235 fmole
decrease of the amount of cAMP accumulated in the mGluR4 variant expressing cell (mGluR4 variant; versus sodium chloride (1 mM) added group, IBMX 100 μM and forskolin 10 μM present): about 19%

Reference: US7157250B2, “Glutamic acid receptor and utilization thereof” (Ajinomoto Co., Inc., priority 2004, dated 2007)
